The supplement of paper PMC10307832

The cell lines below were run with CC1(C)CCC(CN2CCN(c3ccc(C(=O)NS(=O)(=O)c4ccc(NCC5CCOCC5)c([N+](=O)[O-])c4)c(Oc4cnc5[nH]ccc5c4)c3)CC2)=C(c2ccc(Cl)cc2)C1 [Venetoclax] + CC(=O)Nc1cccc(-n2c(=O)n(C3CC3)c(=O)c3c(Nc4ccc(I)cc4F)n(C)c(=O)c(C)c32)c1 [Trametinib] (partner 0.02 µM) (assay: relative viability (nuclei count vs DMSO), 5 days (fraction); higher = more cells survive). Conditions: first compound 0.01 µM.
Summary of the method: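 After 5 days of treatment, lung cancer cells in 1536-well plates were fixed and stained in a single step (final 0.05% Triton X-100, 1% formaldehyde, 1 ug/ml Hoechst) and their nuclei counted on 4× images. Treatment had been applied by pin tool the day after seeding as one drug alone or as a fixed anchor-drug dose with five library-drug doses (not always all listed) in √10 steps. Relative viability is the nuclei count of treated wells divided by that of vehicle wells, and values are medians of duplicate plates.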

| Cell Line | relative viability |
| --- | --- |
| HARA | 1.26 |
| COR-L23 | 0.528 |
| COR-L 105 | 0.333 |
| LC-2-ad | 0.927 |
| LXF-289 | 0.716 |
| ChaGo-K-1 | 0.769 |
| NCI-H322M | 0.528 |
| HCC-78 | 0.599 |
| BEN | 1.1 |
| HCC-15 | 0.384 |
| HCC-827 | 0.522 |
| NCI-H460 | 0.171 |
| LU99A | 0.485 |
| NCI-H2085 | 0.45 |
| A-427 | 0.624 |
| NCI-H520 | 0.58 |
| NCI-H838 | 0.559 |

| Cell Line | relative viability |
| --- | --- |
| NCI-H1792 | 0.456 |
| NCI-H596 | 0.731 |
| NCI-H3122 | 0.259 |
| 201T | 0.675 |
| NCI-H1993 | 0.509 |
| HOP-62 | 0.44 |
| NCI-H1355 | 0.455 |
| NCI-H2405 | 0.769 |
| NCI-H1437 | 0.5 |
| NCI-H661 | 0.528 |
| H3255 | 0.586 |
| NCI-H2347 | 0.327 |
| NCI-H1975 | 0.256 |
| NCI-H441 | 0.49 |
| NCI-H1650 | 0.539 |
| NCI-H1915 | 0.253 |

Same assay, conditions: first compound 0.03162 µM

| Cell Line | relative viability |
| --- | --- |
| HARA | 0.818 |
| COR-L23 | 0.588 |
| COR-L 105 | 0.499 |
| LC-2-ad | 0.84 |
| LXF-289 | 0.692 |
| ChaGo-K-1 | 0.951 |
| NCI-H322M | 0.519 |
| HCC-78 | 0.826 |
| BEN | 1.02 |
| HCC-15 | 0.457 |
| HCC-827 | 0.593 |
| NCI-H460 | 0.229 |
| LU99A | 0.611 |
| NCI-H2085 | 0.56 |
| A-427 | 0.741 |
| NCI-H520 | 0.823 |
| NCI-H838 | 0.522 |

| Cell Line | relative viability |
| --- | --- |
| NCI-H1792 | 0.405 |
| NCI-H596 | 0.746 |
| NCI-H3122 | 0.197 |
| 201T | 0.699 |
| NCI-H1993 | 0.518 |
| HOP-62 | 0.341 |
| NCI-H1355 | 0.46 |
| NCI-H2405 | 0.603 |
| NCI-H1437 | 0.52 |
| NCI-H661 | 0.606 |
| H3255 | 0.648 |
| NCI-H2347 | 0.288 |
| NCI-H1975 | 0.388 |
| NCI-H441 | 0.494 |
| NCI-H1650 | 0.581 |
| NCI-H1915 | 0.319 |

Same assay, conditions: first compound 0.1 µM

| Cell Line | relative viability |
| --- | --- |
| COR-L23 | 0.502 |
| COR-L 105 | 0.386 |
| LC-2-ad | 0.898 |
| LXF-289 | 0.629 |
| ChaGo-K-1 | 0.882 |
| NCI-H322M | 0.436 |
| HCC-78 | 0.597 |
| BEN | 0.864 |
| HCC-15 | 0.352 |
| HCC-827 | 0.538 |
| NCI-H460 | 0.131 |
| LU99A | 0.482 |
| NCI-H2085 | 0.416 |
| A-427 | 0.735 |
| NCI-H838 | 0.524 |
| NCI-H1792 | 0.485 |

| Cell Line | relative viability |
| --- | --- |
| NCI-H596 | 0.851 |
| NCI-H3122 | 0.211 |
| 201T | 0.713 |
| NCI-H1993 | 0.506 |
| HOP-62 | 0.366 |
| NCI-H1355 | 0.435 |
| NCI-H2405 | 0.584 |
| NCI-H1437 | 0.529 |
| NCI-H661 | 0.538 |
| H3255 | 0.603 |
| NCI-H2347 | 0.254 |
| NCI-H1975 | 0.319 |
| NCI-H441 | 0.506 |
| NCI-H1650 | 0.609 |
| NCI-H1915 | 0.295 |

Same assay, conditions: first compound 0.3162 µM

| Cell Line | relative viability |
| --- | --- |
| HARA | 0.647 |
| COR-L23 | 0.575 |
| COR-L 105 | 0.496 |
| LC-2-ad | 0.874 |
| LXF-289 | 0.625 |
| ChaGo-K-1 | 0.939 |
| NCI-H322M | 0.534 |
| HCC-78 | 0.722 |
| BEN | 1.04 |
| HCC-15 | 0.403 |
| HCC-827 | 0.521 |
| NCI-H460 | 0.153 |
| LU99A | 0.566 |
| NCI-H2085 | 0.547 |
| A-427 | 0.71 |
| NCI-H520 | 0.613 |
| NCI-H838 | 0.491 |

| Cell Line | relative viability |
| --- | --- |
| NCI-H1792 | 0.498 |
| NCI-H596 | 0.951 |
| NCI-H3122 | 0.227 |
| 201T | 0.682 |
| NCI-H1993 | 0.591 |
| HOP-62 | 0.442 |
| NCI-H1355 | 0.432 |
| NCI-H2405 | 0.646 |
| NCI-H1437 | 0.463 |
| NCI-H661 | 0.525 |
| H3255 | 0.517 |
| NCI-H2347 | 0.298 |
| NCI-H1975 | 0.347 |
| NCI-H441 | 0.439 |
| NCI-H1650 | 0.485 |
| NCI-H1915 | 0.318 |

Same assay, conditions: first compound 1 µM

| Cell Line | relative viability |
| --- | --- |
| HARA | 0.676 |
| COR-L23 | 0.547 |
| COR-L 105 | 0.413 |
| LC-2-ad | 0.845 |
| LXF-289 | 0.575 |
| ChaGo-K-1 | 0.815 |
| NCI-H322M | 0.562 |
| HCC-78 | 0.911 |
| BEN | 1 |
| HCC-15 | 0.375 |
| HCC-827 | 0.535 |
| NCI-H460 | 0.131 |
| LU99A | 0.596 |
| NCI-H2085 | 0.511 |
| A-427 | 0.713 |
| NCI-H520 | 0.594 |
| NCI-H838 | 0.488 |
| NCI-H1792 | 0.439 |
| NCI-H596 | 0.755 |
| NCI-H3122 | 0.29 |
| 201T | 0.696 |
| NCI-H1993 | 0.535 |
| HOP-62 | 0.39 |
| NCI-H1355 | 0.44 |
| NCI-H2405 | 0.591 |
